System: 327498-153-R-J2-PDC complex spheroid growth, % test/control
Assay: Anticancer human tumor 327498-153-R-J2-PDC patient-derived uterine carcinosarcoma cell line growth inhibition [Asc]
Settings: for IC50: curve of first compound; for viability, T/C: stronger effect = lower value
How it was run: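 Concentration series start at each agent's clinical Cmax, or at 10 microM when none is established, and drop in half-log steps; agents are applied alone or together to complex spheroids built with HUVEC and hMSC.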

[1] = second compound 0.1 µM, first compound 0.0316 µM
[2] = second compound 0.1 µM, first compound 0.1 µM
[3] = second compound 0.1 µM, first compound 0.316 µM
[4] = second compound 0.1 µM, first compound 1 µM
[5] = second compound 0.1 µM, first compound 3.16 µM
[6] = second compound 0.1 µM, first compound 10 µM
[7] = second compound 0.316 µM, first compound 0.0316 µM
[8] = second compound 0.316 µM, first compound 0.1 µM
[9] = second compound 0.316 µM, first compound 0.316 µM
[10] = second compound 0.316 µM, first compound 1 µM
[11] = second compound 0.316 µM, first compound 3.16 µM
[12] = second compound 0.316 µM, first compound 10 µM
[13] = second compound 1 µM, first compound 0.0316 µM
[14] = second compound 1 µM, first compound 0.1 µM
[15] = second compound 1 µM, first compound 0.316 µM
[16] = second compound 1 µM, first compound 1 µM
[17] = second compound 1 µM, first compound 3.16 µM
[18] = second compound 1 µM, first compound 10 µM
[19] = second compound 3.16 µM, first compound 0.0316 µM
[20] = second compound 3.16 µM, first compound 0.1 µM
[21] = second compound 3.16 µM, first compound 0.316 µM
[22] = second compound 3.16 µM, first compound 1 µM
[23] = second compound 3.16 µM, first compound 3.16 µM
[24] = second compound 3.16 µM, first compound 10 µM
[25] = second compound 10 µM, first compound 0.0316 µM
[26] = second compound 10 µM, first compound 0.1 µM
[27] = second compound 10 µM, first compound 0.316 µM
[28] = second compound 10 µM, first compound 1 µM
[29] = second compound 10 µM, first compound 3.16 µM
[30] = second compound 10 µM, first compound 10 µM
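Also: spheroids exposed to compound for 7 days after 3 days of growth.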
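For viability, T/C in this document: 100% = DMSO vehicle control wells.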

In the case of `C#Cc1c(F)ccc2cc(O)cc(-c3ncc4c(N5CC6CCC(C5)N6)nc(OCC56CCCN5CC(F)C6)nc4c3F)c12` (stereo not given) + Cc1c(S(C)(=O)=O)c(-c2cc(F)cc(N3CCN(c4ccc(NS(=O)(=O)c5ccc(NC(CCN6CCC(C(=O)OCCCP(=O)(O)O)CC6)CSc6ccccc6)c(S(=O)(=O)C(F)(F)F)c5)cc4)CC3)c2)c(-c2ccc(Cl)cc2)n1C(C)C, the IC50 (second compound 0.1 µM) is reported as greater than 10000 nM, the IC50 (second compound 0.316 µM) is reported as 5990 nM and the IC50 (second compound 1 µM) is reported as 3180 nM. It also gave an IC50 (second compound 3.16 µM) of 5040 nM, an IC50 (second compound 10 µM) greater than 10000 nM and a viability, T/C [1] of 97.2%. It also gave a viability, T/C [2] of 107%, a viability, T/C [3] of 82.5% and a viability, T/C [4] of 75.1%. For the same compound, the viability, T/C [5] was 61.7%, the viability, T/C [6] was 50.1% and the viability, T/C [7] was 102%. The viability, T/C [8] was 88.9%, the viability, T/C [9] was 88.3% and the viability, T/C [10] was 65.8%. The viability, T/C [11] was 53.8%, the viability, T/C [12] was 47.3% and the viability, T/C [13] was 90.6%. For the same compound, the viability, T/C [14] was 101%, the viability, T/C [15] was 81% and the viability, T/C [16] was 71.1%. The viability, T/C [17] was 47.9%, the viability, T/C [18] was 43.8% and the viability, T/C [19] was 96.6%. For the same compound, the viability, T/C [20] was 87.5%, the viability, T/C [21] was 70.8% and the viability, T/C [22] was 69.7%. It also gave a viability, T/C [23] of 51.4%, a viability, T/C [24] of 44.4% and a viability, T/C [25] of 166%. For the same compound, the viability, T/C [26] was 165%, the viability, T/C [27] was 150% and the viability, T/C [28] was 145%. It also gave a viability, T/C [29] of 133% and a viability, T/C [30] of 86.6%.

With `C=C(F)C(=O)N1CCN(c2nc(OCC3CCCN3C)nc3c2CCN(c2cccc4cccc(Cl)c24)C3)CC1CC#N` (stereo not given) + Cc1c(S(C)(=O)=O)c(-c2cc(F)cc(N3CCN(c4ccc(NS(=O)(=O)c5ccc(NC(CCN6CCC(C(=O)OCCCP(=O)(O)O)CC6)CSc6ccccc6)c(S(=O)(=O)C(F)(F)F)c5)cc4)CC3)c2)c(-c2ccc(Cl)cc2)n1C(C)C the IC50 (second compound 0.1 µM) was 756 nM, the IC50 (second compound 0.316 µM) was 633 nM and the IC50 (second compound 1 µM) was 546 nM. It also gave an IC50 (second compound 3.16 µM) of 512 nM, an IC50 (second compound 10 µM) of 1590 nM and a viability, T/C [1] of 63%. The viability, T/C [2] was 57.9%, the viability, T/C [3] was 62.2% and the viability, T/C [4] was 46.4%. It also gave a viability, T/C [5] of 5.7%, a viability, T/C [6] of 0.14% and a viability, T/C [7] of 66.6%. It also gave a viability, T/C [8] of 63.4%, a viability, T/C [9] of 56% and a viability, T/C [10] of 43.6%. For the same compound, the viability, T/C [11] was 3.41%, the viability, T/C [12] was 0.12% and the viability, T/C [13] was 63.9%. For the same compound, the viability, T/C [14] was 58.5%, the viability, T/C [15] was 55.9% and the viability, T/C [16] was 40.8%. For the same compound, the viability, T/C [17] was 3.33%, the viability, T/C [18] was 0.11% and the viability, T/C [19] was 68.1%. For the same compound, the viability, T/C [20] was 60.1%, the viability, T/C [21] was 50.7% and the viability, T/C [22] was 41.3%. For the same compound, the viability, T/C [23] was 2.02%, the viability, T/C [24] was 0.12% and the viability, T/C [25] was 164%. It also gave a viability, T/C [26] of 150%, a viability, T/C [27] of 130% and a viability, T/C [28] of 82%. It also gave a viability, T/C [29] of 3.02% and a viability, T/C [30] of 0.19%.

`CCN1C(C(=O)NC23CCC(C(=O)O)(CC2)CC3)C(c2cccc(Cl)c2F)C2(C(=O)Nc3cc(Cl)ccc32)C12CCCCC2` (stereo not given) + Cc1c(S(C)(=O)=O)c(-c2cc(F)cc(N3CCN(c4ccc(NS(=O)(=O)c5ccc(NC(CCN6CCC(C(=O)OCCCP(=O)(O)O)CC6)CSc6ccccc6)c(S(=O)(=O)C(F)(F)F)c5)cc4)CC3)c2)c(-c2ccc(Cl)cc2)n1C(C)C gave an IC50 (second compound 0.1 µM) of 147 nM, an IC50 (second compound 0.316 µM) of 136 nM and an IC50 (second compound 1 µM) of 106 nM. It also gave an IC50 (second compound 3.16 µM) of 122 nM, an IC50 (second compound 10 µM) of 172 nM and a viability, T/C (second compound 0.1 µM, first compound 0.00949 µM) of 92.5%. The viability, T/C (second compound 0.1 µM, first compound 0.03 µM) was 84.5%, the viability, T/C (second compound 0.1 µM, first compound 0.0949 µM) was 64.8% and the viability, T/C (second compound 0.1 µM, first compound 0.3 µM) was 26.6%. It also gave a viability, T/C (second compound 0.1 µM, first compound 0.949 µM) of 6.43%, a viability, T/C (second compound 0.1 µM, first compound 3 µM) of 2% and a viability, T/C (second compound 0.316 µM, first compound 0.00949 µM) of 87.4%. For the same compound, the viability, T/C (second compound 0.316 µM, first compound 0.03 µM) was 89%, the viability, T/C (second compound 0.316 µM, first compound 0.0949 µM) was 64.4% and the viability, T/C (second compound 0.316 µM, first compound 0.3 µM) was 17%. The viability, T/C (second compound 0.316 µM, first compound 0.949 µM) was 8.41%, the viability, T/C (second compound 0.316 µM, first compound 3 µM) was 2.1% and the viability, T/C (second compound 1 µM, first compound 0.00949 µM) was 91.4%. For the same compound, the viability, T/C (second compound 1 µM, first compound 0.03 µM) was 94.5%, the viability, T/C (second compound 1 µM, first compound 0.0949 µM) was 50.6% and the viability, T/C (second compound 1 µM, first compound 0.3 µM) was 17.8%. It also gave a viability, T/C (second compound 1 µM, first compound 0.949 µM) of 4.84%, a viability, T/C (second compound 1 µM, first compound 3 µM) of 1.36% and a viability, T/C (second compound 3.16 µM, first compound 0.00949 µM) of 78.9%. It also gave a viability, T/C (second compound 3.16 µM, first compound 0.03 µM) of 79%, a viability, T/C (second compound 3.16 µM, first compound 0.0949 µM) of 56.1% and a viability, T/C (second compound 3.16 µM, first compound 0.3 µM) of 23.8%. For the same compound, the viability, T/C (second compound 3.16 µM, first compound 0.949 µM) was 6.76%, the viability, T/C (second compound 3.16 µM, first compound 3 µM) was 1.6% and the viability, T/C (second compound 10 µM, first compound 0.00949 µM) was 166%. The viability, T/C (second compound 10 µM, first compound 0.03 µM) was 162%, the viability, T/C (second compound 10 µM, first compound 0.0949 µM) was 80.9% and the viability, T/C (second compound 10 µM, first compound 0.3 µM) was 23.5%. For the same compound, the viability, T/C (second compound 10 µM, first compound 0.949 µM) was 9.14% and the viability, T/C (second compound 10 µM, first compound 3 µM) was 1.51%.

`CNC(C)C(=O)NC1CN(S(=O)(=O)c2cccc(S(=O)(=O)N3CCC4CCC(C(=O)NC(c5ccccc5)c5ccccc5)N4C(=O)C(NC(=O)C(C)NC)C3)c2)CCC2CCC(C(=O)NC(c3ccccc3)c3ccccc3)N2C1=O` (stereo not given) + Cc1c(S(C)(=O)=O)c(-c2cc(F)cc(N3CCN(c4ccc(NS(=O)(=O)c5ccc(NC(CCN6CCC(C(=O)OCCCP(=O)(O)O)CC6)CSc6ccccc6)c(S(=O)(=O)C(F)(F)F)c5)cc4)CC3)c2)c(-c2ccc(Cl)cc2)n1C(C)C gave an IC50 (second compound 0.1 µM) greater than 1000 nM, an IC50 (second compound 0.316 µM) greater than 1000 nM and an IC50 (second compound 1 µM) greater than 1000 nM. The IC50 (second compound 3.16 µM) was greater than 1000 nM, the IC50 (second compound 10 µM) was greater than 1000 nM and the viability, T/C (second compound 0.1 µM, first compound 0.00316 µM) was 94.1%. For the same compound, the viability, T/C (second compound 0.1 µM, first compound 0.01 µM) was 91.2%, the viability, T/C [1] was 98% and the viability, T/C [2] was 92.3%. The viability, T/C [3] was 93.8%, the viability, T/C [4] was 82.4% and the viability, T/C (second compound 0.316 µM, first compound 0.00316 µM) was 93.1%. It also gave a viability, T/C (second compound 0.316 µM, first compound 0.01 µM) of 93.3%, a viability, T/C [7] of 96.6% and a viability, T/C [8] of 87.2%. The viability, T/C [9] was 87.7%, the viability, T/C [10] was 83.9% and the viability, T/C (second compound 1 µM, first compound 0.00316 µM) was 100%. The viability, T/C (second compound 1 µM, first compound 0.01 µM) was 90.6%, the viability, T/C [13] was 97% and the viability, T/C [14] was 80.3%. For the same compound, the viability, T/C [15] was 82.1%, the viability, T/C [16] was 92.2% and the viability, T/C (second compound 3.16 µM, first compound 0.00316 µM) was 84.4%. It also gave a viability, T/C (second compound 3.16 µM, first compound 0.01 µM) of 90.8%, a viability, T/C [19] of 88.4% and a viability, T/C [20] of 86%. It also gave a viability, T/C [21] of 89.8%, a viability, T/C [22] of 85% and a viability, T/C (second compound 10 µM, first compound 0.00316 µM) of 173%. The viability, T/C (second compound 10 µM, first compound 0.01 µM) was 166%, the viability, T/C [25] was 156% and the viability, T/C [26] was 146%. For the same compound, the viability, T/C [27] was 153% and the viability, T/C [28] was 136%.
